ChEMBL document CHEMBL1681646 (Bioorg Med Chem Lett, 2011)

Molecular target: T1, Pancreatic triacylglycerol lipase (Sus scrofa, UniProt P00591)
T1 sequence (P00591 whole entry): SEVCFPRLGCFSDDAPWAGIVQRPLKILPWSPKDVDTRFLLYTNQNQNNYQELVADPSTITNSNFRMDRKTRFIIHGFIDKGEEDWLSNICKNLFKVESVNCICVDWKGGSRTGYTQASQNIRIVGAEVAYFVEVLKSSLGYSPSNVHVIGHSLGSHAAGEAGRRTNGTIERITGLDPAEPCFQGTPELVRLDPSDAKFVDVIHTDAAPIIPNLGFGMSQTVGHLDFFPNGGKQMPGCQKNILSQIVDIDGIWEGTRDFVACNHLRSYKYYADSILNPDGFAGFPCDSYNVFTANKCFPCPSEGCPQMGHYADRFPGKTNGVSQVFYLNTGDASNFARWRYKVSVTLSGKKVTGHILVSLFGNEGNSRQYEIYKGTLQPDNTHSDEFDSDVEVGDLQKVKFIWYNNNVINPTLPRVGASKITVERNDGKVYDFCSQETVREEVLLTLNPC
Experiment: Inhibition of pig pancreatic lipase assessed as p-NPB hydrolysis […]

| Compound | IC50 |
| --- | --- |
| COc1cc([C@H](O)[C@H](C)O)ccc1O (relative stereo) | 9.1 µM |
| COc1cc(C=O)ccc1O [VANILLIN] | 174 µM |
| COc1cc(C(=O)O)ccc1O [VANILLIC ACID] | > 250 µM |
| COc1cc([C@@H](O)[C@H](C)O)ccc1O (relative stereo) | 12.1 µM |
| COc1cc([C@H]2CC(=O)O[C@H]2C)ccc1O (relative stereo) [CURCULACTONE A] | 232 µM |
